These are literature values, as cited in patent US20020016334A1, “Pharmaceutical composition for the treatment of attention deficit hyperactivity disorder (ADHD)” (priority 2000, published 2002).

Data set [1] has as its system clinical ADHD symptoms. As to conditions: humans (Levin et al. 1996).
Data set [2] concerns working memory deficits. As to conditions: brain-lesioned rats (Levin et al. 1993).
Data set [3] concerns performance on serial choice tasks. Particulars: animal studies (Muir et al. 1995).

As to `CN1CCCC1c1cccnc1` (stereo not drawn) [nicotine], the “Effect on clinical ADHD symptoms by Clinical Global Impression scale” value in data set [1] is recorded as “significantly improves”. Further, the “Effect on deficits in working memory” value in data set [2] is “reverse deficits in working memory”. Besides, in data set [3], the “Effect on performance on serial choice tasks” value is reported as “improves performance”.
